Format in all cases: cell-based
The subject of one test is SW480 colon cancer cells. Description: Cell viability assay (CellTiter-Blue). The settings on record: Homo sapiens, 96 h, four days; for inhibition at 10 µM: given where EC50 >10 μM, read-out: percent inhibition at 10 μM. As for the experimental part: Representative compounds were screened using the following assay procedure to assess the effect on cell viability as described below.
Each compound was dissolved in DMSO as a 10 mM stock and used to prepare compound source plates. Serial dilution (1:3, 8-point dose-response curves from 10 μM to 0.0045 μM) and compound transfer was performed using the ECHO 550 (Labcyte, Sunnyvale, Calif.) into 96-well clear bottom, black-walled plates (Corning-Costar).
Approximately 2×10^3 SW480 colon cancer cells were seeded into each well and allowed to incubate in the presence or absence of compound for four days at 37° C./5% CO2. Eight replicates of DMSO-treated cells served as controls and cells treated with compound were performed in duplicate.
After incubation, 20 μL of CellTiter-Blue (Promega) was added to each well allowed to incubate for approximately 3 hours. This reagent was a buffered solution which contains resazurin, metabolically active cells were able to reduce rezarurin (blue) into resorufin (pink) which was highly fluorescent. This measured fluorescence was used as a readout for cell viability.
After incubation, the plates were read at Ex 560 nm Em 590 nm (Cytation 3, BioTek). Dose-response curves were generated and EC50 concentration values were calculated using non-linear regression curve fit in the GraphPad Prism (San Diego, Calif.) or Dotmatics' Studies Software (Bishops Stortford, UK). For EC50 of >10 μM, the percent inhibition at 10 μM is provided.
A general note: The colour change of resazurin is a common sign of viable cells or microbes.

Test [1] has as its system primary human fibroblasts derived from IPF patients (LL29 cells) treated with TGF-β1. Put plainly: Inhibition of fibrotic process, αSMA staining in TGF-β1 treated LL29 fibroblasts. The settings on record: Fibroblast; for EC50: 96 h, % αSMA positive LL29 cells, TGF-β1 20 ng/mL, 4 days; for inhibition at 10 µM: given where EC50 >10 μM, αSMA, LL29 cells, TGF-β1, read-out: percent inhibition at 10 μM. The text has this:
Representative compounds were screened using primary human fibroblasts (derived from IPF patients) treated with TGF-β1 to determine their ability to inhibit the fibrotic process.
Primary human fibroblasts derived from IPF patients (LL29 cells) [^1Xiaoqiu Liu, et. al., “Fibrotic Lung Fibroblasts Show Blunted Inhibition by cAMP Due to Deficient cAMP Response Element-Binding Protein Phosphorylation”, Journal of Pharmacology and Experimental Therapeutics (2005), 315(2), 678-687; ^2Watts, K. L., et. al., “RhoA signaling modulates cyclin D1 expression in human lung fibroblasts; implications for idiopathic pulmonary fibrosis”, Respiratory Research (2006), 7(1), 88] were obtained from American Type Culture Collection (ATCC) and expanded in F12 medium supplemented with 15% Fetal Bovine Serum and Penicillin/Streptomycin.
Each compound was dissolved in DMSO as a 10 mM stock and used to prepare compound source plates. Serial dilution (1:2, 11-point dose-response curves from 10 μM to 1.87 nM) and compound transfer was performed using the ECHO 550 (Labcyte, Sunnyvale, Calif.) into 384-well clear bottom assay plates (Greiner Bio-One) with appropriate DMSO backfill for a final DMSO concentration of 0.1%. LL29 cells are plated at 1,500 cells/well in 80 μL/well F12 medium supplemented with 1% Fetal Bovine Serum. One hour after addition of the cells, TGF-β1 (Peprotech; 20 ng/mL) was added to the plates to induce fibrosis (ref. 1 and 2 above). Wells treated with TGF-β1 and containing DMSO were used as controls. Cells were incubated at 37° C. and 5% CO2 for 4 days. Following incubation for 4 days, SYTOX green nucleic acid stain (Life Technologies [Thermo Fisher Scientific]) was added to the wells at a final concentration of 1 μM and incubated at room temperature for 30 min. Cells were then fixed using 4% formaldehyde (Electron Microscopy Sciences), washed 3 times with PBS followed by blocking and permeabilization using 3% Bovine Serum Albumin (BSA; Sigma) and 0.3% Triton X-100 (Sigma) in PBS. Cells were then stained with antibody specific to α-smooth muscle actin (αSMA; Abcam) (ref. 1 and 2 above) in 3% Bovine Serum Albumin (BSA; Sigma) and 0.3% Triton X-100 (Sigma) in PBS, and incubated overnight at 4° C. Cells were then washed 3 times with PBS, followed by incubation with Alexa Flor-647 conjugated secondary antibody (Life Technologies [Thermo Fisher Scientific]) and DAPI at room temperature for 1 hour. Cells were then washed 3 times with PBS and plates were sealed for imaging. αSMA staining was imaged by excitation at 630 nm and emission at 665 nm and quantified using the Compartmental Analysis program on the CellInsight CX5 (Thermo Scientific). Dead or apoptotic cells were excluded from analysis based on positive SYTOX green staining. % of total cells positive for αSMA were counted in each well and normalized to the average of 11 wells treated with TGF-β1 on the same plate using Dotmatics' Studies Software. The normalized averages (fold change over untreated) of 3 replicate wells for each compound concentration were used to create dose-responses curves and EC50 values were calculated using non-linear regression curve fit in the Dotmatics' Studies Software. For EC50 of >10 μM, the percent inhibition at 10 μM is provided.

The next test deals with IL-6 (THP-1 cells). Description: IL-6 inhibition in LPS-stimulated THP-1 cells (HTRF). The settings on record: Homo sapiens; for EC50: IL-6 in THP-1 cells, LPS 500 ng/mL, 22 hours; for inhibition at 10 µM: given where EC50 >10 μM, IL-6, THP-1 cells, LPS, read-out: percent inhibition at 10 μM. As for the experimental part:
Human monocyte cell line (THP-1 cells; Catalog # TIB-202, ATCC, Manassas, Va.) were cultured in Roswell Park Memorial Institute (RPMI) 1640 Medium (Catalog #21870-100, Buffalo, N.Y.) with 1% L-glutamine, 1% HEPES, 1% Sodium Pyruvate, 2% Sodium Bicarbonate supplemented with 100 units/mL penicillin, 50 μg/mL streptomycin, 2-mercaptoethanol (0.05 mM) [basal medium] and 10% fetal bovine serum (Catalog #16140089, Life Technologies, Carlsbad, Calif.) at 37° C. and 5% CO2.
THP-1 cells were cultured in basal media with 1% FBS for 24 hours before the start of the assay. Each compound was dissolved in DMSO as a 10 mM stock and used to prepare compound source plates. Serial dilution (1:3, 10-point dose-response curves starting from 10 μM) and compound transfer was performed using the ECHO 550 (Labcyte, Sunnyvale, Calif.) into 384-well white low volume assay plates (Greiner Bio-One) with appropriate DMSO backfill for a final DMSO concentration of 0.1%. THP-1 cells were plated at 5000 cells/well in the 384-well plates and incubated at 37° C. for 2 h. 500 ng/mL of LPS was added after 2 hours and cells were incubated for another 22 hours at 37° C. Plates were spun in a centrifuge for 1 minute at […] and a mixture of anti-IL6 XL665, and anti-IL6 Cryptate diluted in reconstitution buffer (Cisbio Inc.) was added to each well. Following incubation for 3 hrs at room temperature, Homogeneous Time-Resolved Fluorescence (HTRF) was measured using the Envision (Perkin Elmer) at 665 nm and […]. The ratio of fluorescence at 665 nm to 620 nm was used as a readout for IL6 quantification. All samples were processed in duplicate. Readings were normalized to DMSO treated cells and normalized activities were utilized for EC50 calculations using the dose-response log (inhibitor) vs. response-variable slope (four parameters) nonlinear regression feature available in GraphPad Prism 5.0 (or Dotmatics). For EC50 of >10 μM, the percent inhibition at 10 μM is provided.
On the technique in general: TR-FRET usually uses a lanthanide donor and a delayed reading to cut background.

By inhibition is commonly meant the relative decrease from the control value, in per cent. As a reminder, the EC50 is the concentration needed to bring the measured effect to its halfway point. A high value points to weaker potency.

Regarding `CN(C)CCNc1cc(F)cc(-c2ccnc3[nH]c(-c4n[nH]c5cnc(-c6ccncc6)cc45)cc23)c1` [Compound 466, N^1-(3-Fluoro-5-(2-(5-(pyridin-4-yl)-1H-pyrazolo[3,4-c]pyridin-3-yl)-1H-pyrrolo[2,3-b]pyridin-4-yl)phenyl)-N^2,N^2-dimethylethane-1,2-diamine], the inhibition at 10 µM was 16.8% in the test with SW480 colon cancer cells and 5.9% with IL-6 (THP-1 cells). Also, the EC50 in the test on SW480 colon cancer cells was greater than 10 µM; in test [1], 1.74 µM; in the test with IL-6 (THP-1 cells) it was greater than 10 µM.

On to `O=C(Nc1cncc(-c2cc3c(-c4cc5c(-c6cccc(F)c6)ccnc5[nH]4)n[nH]c3cn2)c1)C1CC1` [Compound 20, N-(5-(3-(4-(3-Fluorophenyl)-1H-pyrrolo[2,3-b]pyridin-2-yl)-1H-pyrazolo [3,4-c]pyridin-5-yl)pyridin-3-yl)cyclopropanecarboxamide], for which the EC50 with SW480 colon cancer cells was 0.159 µM; in test [1] it was 0.019 µM; in the test with IL-6 (THP-1 cells), greater than 10 µM. For the same compound, the inhibition at 10 µM in the test with IL-6 (THP-1 cells) was 42.8%.

With `c1cc(N2CCCCC2)c2cc(-c3n[nH]c4cnc(-c5cncc(CN6CCCC6)c5)cc34)[nH]c2n1` [Compound 182, 3-(4-(Piperidin-1-yl)-1H-pyrrolo[2,3-b]pyridin-2-yl)-5-(5-(pyrrolidin-1-ylmethyl)pyridin-3-yl)-1H-pyrazolo[3,4-c]pyridine], the results for the inhibition at 10 µM with SW480 colon cancer cells and with IL-6 (THP-1 cells) were 54.9% and 39%, respectively. For the same compound, the EC50 is greater than 10 µM in the test on SW480 colon cancer cells, 4.51 µM in test [1] and greater than 10 µM with IL-6 (THP-1 cells).

Consider `O=C(Cc1ccccc1)Nc1cncc(-c2cc3c(-c4cc5c(-c6ccccc6F)ccnc5[nH]4)n[nH]c3cn2)c1` [Compound 66, N-(5-(3-(4-(2-Fluorophenyl)-1H-pyrrolo[2,3-b]pyridin-2-yl)-1H-pyrazolo [3,4-c]pyridin-5-yl)pyridin-3-yl)-2-phenylacetamide], for which the results for the EC50 (in the test on SW480 colon cancer cells; in test [1]; in the test on IL-6 (THP-1 cells)) were 0.62 µM, 0.501 µM and greater than 10 µM, respectively. For the same compound, the inhibition at 10 µM in the test on IL-6 (THP-1 cells) worked out at 35.8%.

As for `O=C(Nc1cncc(-c2cc3c(-c4cc5c(-c6ccncc6)ccnc5[nH]4)n[nH]c3cn2)c1)C1CCCCC1` [Compound 135, N-(5-(3-(4-(Pyridin-4-yl)-1H-pyrrolo[2,3-b]pyridin-2-yl)-1H-pyrazolo[3,4-c]pyridin-5-yl)pyridin-3-yl)cyclohexanecarboxamide], the inhibition at 10 µM with SW480 colon cancer cells turned out to be 10.3%; in test [1], 10.8%; with IL-6 (THP-1 cells) it was 17.8%. The EC50 (in the test on SW480 colon cancer cells; in test [1]; in the test with IL-6 (THP-1 cells)) was greater than 10 µM throughout.

Consider `Cc1ccncc1-c1cc2c(-c3cc4c(-c5ccncc5)ccnc4[nH]3)n[nH]c2cn1` [Compound 117, 5-(4-Methylpyridin-3-yl)-3-(4-(pyridin-4-yl)-1H-pyrrolo[2,3-b]pyridin-2-yl)-1H-pyrazolo[3,4-c]pyridine], for which the EC50 with SW480 colon cancer cells is 8.43 µM; in test [1], 4.43 µM; in the test with IL-6 (THP-1 cells), greater than 10 µM. For the same compound, the inhibition at 10 µM with IL-6 (THP-1 cells) was determined as 15.9%.

With `c1ccc(-c2cc3c(-c4cc5c(-c6ccncc6)ccnc5[nH]4)n[nH]c3cn2)nc1` [Compound 140, 5-(Pyridin-2-yl)-3-(4-(pyridin-4-yl)-1H-pyrrolo[2,3-b]pyridin-2-yl)-1H-pyrazolo[3,4-c]pyridine], the inhibition at 10 µM was found to be 17.5% with SW480 colon cancer cells, 10.5% in test [1] and 23.5% in the test with IL-6 (THP-1 cells). Further, the EC50 (with SW480 colon cancer cells; in test [1]; with IL-6 (THP-1 cells)) was greater than 10 µM in each case.

In the case of `CN(C)Cc1cncc(-c2cc3c(-c4cc5c(-c6ccncc6)ccnc5[nH]4)n[nH]c3cn2)c1` [Compound 125, N,N-Dimethyl-1-(5-(3-(4-(pyridin-4-yl)-1H-pyrrolo[2,3-b]pyridin-2-yl)-1H-pyrazolo[3,4-c]pyridin-5-yl)pyridin-3-yl)methanamine], the inhibition at 10 µM was 3.9% with SW480 colon cancer cells and 34.4% with IL-6 (THP-1 cells). Also, the half-maximal effective concentration (EC50) in the test on SW480 colon cancer cells is greater than 10 µM; in test [1] it was 5.01 µM; in the test with IL-6 (THP-1 cells), greater than 10 µM.

Consider `c1cncc(-c2cc3c(-c4cc5cccnc5[nH]4)n[nH]c3cn2)c1` [Compound 256, 5-(Pyridin-3-yl)-3-(1H-pyrrolo[2,3-b]pyridin-2-yl)-1H-pyrazolo[3,4-c]pyridine], for which the inhibition at 10 µM in the test on SW480 colon cancer cells was 19.3%. For the same compound, the EC50 in the test on SW480 colon cancer cells is greater than 10 µM; in test [1] it was 1.7 µM; in the test with IL-6 (THP-1 cells) it was 0.023 µM.

On to `O=C(Nc1cncc(-c2cc3c(-c4cc5cccnc5[nH]4)n[nH]c3cn2)c1)C1CCCCC1` [Compound 275, N-(5-(3-(1H-Pyrrolo[2,3-b]pyridin-2-yl)-1H-pyrazolo[3,4-c]pyridin-5-yl)pyridin-3-yl)cyclohexanecarboxamide], for which the inhibition at 10 µM amounted to 9.5% with SW480 colon cancer cells and 24.7% in the test with IL-6 (THP-1 cells). Besides, the results for the EC50 (with SW480 colon cancer cells; in test [1]; in the test on IL-6 (THP-1 cells)) were greater than 10 µM, 2.52 µM and greater than 10 µM, respectively.

For the origin of these results see patent US10285982B2, “3-(1H-pyrrolo[2,3-B]pyridin-2-yl)-1H-pyrazolo[3,4-C]pyridines and therapeutic uses thereof” (Samumed, LLC, priority 2015, dated 2019).
